Experimental data taken from PMC8718748, “Molecular Dissection of the Primase and Polymerase Activities of Deep-Sea Phage NrS-1 Primase-Polymerase” (Frontiers in Microbiology, 2021).

Tests used:
N300 [1] = biological target: T1, N300 (Nitratiruptor phage NrS-1, UniProt M5AAG8); assay: X-ray crystal structure of complex (native, […] A); assay type: binding; settings: Mg2+; crystallised with ddCTP and ssDNA, pH 4.5; active site
T1 construct: gene 28; N-terminal 300 residues (Prim/Pol domain + helix bundle domain) of NrSPol; pET28b, 6xHis with TEV site, tag cut for crystals (SeMet for ddCTP crystal); E. coli

N300 [2] = biological target: T1, N300; assay: X-ray crystal structure of complex (SeMet, SAD, […] A); assay type: binding; settings: Ca2+ (200 mM calcium acetate in crystals), pH 7.0; active site, 3'-site nucleotide

T1 sequence (M5AAG8 1-300): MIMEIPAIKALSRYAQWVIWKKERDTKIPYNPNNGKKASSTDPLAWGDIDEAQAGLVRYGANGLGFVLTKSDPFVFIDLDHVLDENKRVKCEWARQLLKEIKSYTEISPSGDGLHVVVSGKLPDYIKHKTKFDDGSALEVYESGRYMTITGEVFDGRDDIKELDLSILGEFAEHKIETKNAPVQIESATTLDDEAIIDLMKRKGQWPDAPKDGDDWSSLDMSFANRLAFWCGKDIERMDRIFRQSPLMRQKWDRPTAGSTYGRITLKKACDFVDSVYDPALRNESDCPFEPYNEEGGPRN

Compound	X-ray crystal structure of complex (native, 1.86 A) (N300 [1])	X-ray crystal structure of complex (SeMet, SAD, 2.24 A) (N300 [2])
O=P(O)(O)OP(=O)(O)O [pyrophosphate]	a pyrophosphate (PPi) occupies the active site instead of ddCTP	
Nc1ccn([C@H]2CC[C@@H](COP(=O)(O)OP(=O)(O)OP(=O)(O)O)O2)c(=O)n1 [ddCTP]		we determined the crystal structures of N300 in complex with ddCTP
